Reference: patent US8609592B2, “2-(substituted phenyl)-6-amino-5-alkoxy, thioalkoxy and aminoalkyl-4-pyrimidinecarboxylates and their use as herbicides” (Dow AgroSciences LLC, priority 2007, dated 2013)

Experiments:
[1] = tested on: Barnyardgrass (Echinochloa crus-galli); experiment: General postemergence herbicidal activity, greenhouse; assay type: in vivo; settings: post-emergence, 336 h, post-emergent, visual score after 14 days (0 no injury, 100 complete kill), read-out: % Growth Reduction ECHCG; for pest or weed control at 140 g/ha: 140 g ai/ha
Description: (§1) Seeds or nutlets of the desired test plant species were planted in Sun Gro MetroMix® 360 planting mixture, which typically has a pH of 6.0 to 6.8 and an organic matter content of about 30 percent, in plastic pots with a surface area of 64 square centimeters. When required to ensure good germination and healthy plants, a fungicide treatment and/or other chemical or physical treatment was applied. The plants were grown for 7-21 days in a greenhouse with an approximate 15 hour photoperiod which was maintained at about 23-29° C. during the day and 22-28° C. during the night. Nutrients and water were added on a regular basis and supplemental lighting was provided with overhead metal halide 1000-Watt lamps as necessary. The plants were employed for testing when they reached the first or second true leaf stage.
(§2) A weighed amount, determined by the highest rate to be tested, of each test compound was dissolved in 4 mL of a 97:3 v/v (volume/volume) mixture of acetone and dimethyl sulfoxide (DMSO) to obtain concentrated stock solutions. […] The concentrated stock solutions obtained were diluted with 20 mL of an aqueous mixture containing acetone, water, isopropyl alcohol, DMSO, Atplus 411F crop oil concentrate, and Triton X-155 surfactant in a 48.5:39:10:1.5:1.0:0.02 v/v ratio to obtain spray solutions containing the highest application rates. Additional application rates were obtained by serial dilution of 12 mL of the high rate solution into a solution containing 2 mL of 97:3 v/v (volume/volume) mixture of acetone and dimethyl sulfoxide (DMSO) and 10 mL of an aqueous mixture containing acetone, water, isopropyl alcohol, DMSO, Atplus 411F crop oil concentrate, and Triton X-155 surfactant in a 48.5:39:10:1.5:1.0:0.02 v/v ratio to obtain ½×, ¼×, ⅛× and 1/16× rates of the high rate. Compound requirements are based upon a 12 mL application volume at a rate of 187 L/ha. Formulated compounds were applied to the plant material with an overhead Mandel track sprayer equipped with a 8002E nozzles calibrated to deliver 187 L/ha over an application area of 0.503 square meters at a spray height of […] above the average plant canopy height. Control plants were sprayed in the same manner with the solvent blank.
(§3) The treated plants and control plants were placed in a greenhouse as described above and watered by sub-irrigation to prevent wash-off of the test compounds. After 14 days, the condition of the test plants as compared with that of the untreated plants was determined visually and scored on a scale of 0 to 100 percent where 0 corresponds to no injury and 100 corresponds to complete kill.

[2] = tested on: Giant foxtail (Setaria faberi); experiment: as above; assay type: in vivo; settings: post-emergence, 336 h, post-emergent, visual score after 14 days (0 no injury, 100 complete kill), read-out: % Growth Reduction SETFA; for pest or weed control at 140 g/ha: 140 g ai/ha; for pest or weed control at 280 g/ha: 280 g ai/ha
Description: as §1, §2, §3

[3] = tested on: Velvetleaf (Abutilon theophrasti); experiment: as above; assay type: in vivo; settings: post-emergence, 336 h, post-emergent, visual score after 14 days (0 no injury, 100 complete kill), read-out: % Growth Reduction ABUTH; for pest or weed control at 140 g/ha: 140 g ai/ha; for pest or weed control at 280 g/ha: 280 g ai/ha
Description: as §1, §2, §3

[4] = tested on: Wild buckwheat (Polygonum convolvulus); experiment: as above; assay type: in vivo; settings: Fallopia convolvulus, post-emergence, 336 h, post-emergent, visual score after 14 days (0 no injury, 100 complete kill), read-out: % Growth Reduction POLCO; for pest or weed control at 140 g/ha: 140 g ai/ha; for pest or weed control at 280 g/ha: 280 g ai/ha
Description: as §1, §2, §3

Row | SMILES | pest or weed control at 140 g/ha [1] [%] | pest or weed control at 140 g/ha [2] [%] | pest or weed control at 140 g/ha [3] [%] | pest or weed control at 140 g/ha [4] [%] | also measured
1 | COC(=O)c1nc(-c2ccc(Cl)c(OC)c2F)nc(N)c1OC [Compound 1, 6-amino-2-(4-chloro-2-fluoro-3-methoxyphenyl)-5-methoxypyrimidine-4-carboxylic acid methyl ester] | 100 | 95 | 100 | 100 | –
2 | CCOC(=O)c1nc(-c2ccc(Cl)cc2)nc(N)c1OC [Compound 2, 6-Amino-2-(4-chlorophenyl)-5-methoxypyrimidine-4-carboxylic acid ethyl ester] | 50 | 70 | 98 | 100 | –
3 | CCOC(=O)c1nc(-c2cc(C)c(Cl)cc2F)nc(N)c1OC [Compound 3, 6-Amino-2-(4-chloro-2-fluoro-5-methylphenyl)-5-methoxypyrimidine-4-carboxylic acid ethyl ester] | – | – | – | – | pest or weed control at 280 g/ha ([1]; 280 g ai/ha): 0%; pest or weed control at 280 g/ha [2]: 0%; pest or weed control at 280 g/ha [3]: 60%; pest or weed control at 280 g/ha [4]: 85%
4 | CCOC(=O)c1nc(-c2ccc(Cl)c(F)c2)nc(N)c1OC [Compound 9, 6-Amino-2-(4-chloro-3-fluorophenyl)-5-methoxypyrimidine-4-carboxylic acid ethyl ester] | 90 | 30 | 95 | 100 | –
5 | CCOC(=O)c1nc(-c2ccc(C)cc2F)nc(N)c1OC [Compound 10, 6-Amino-2-(2-fluoro-4-methylphenyl)-5-methoxypyrimidine-4-carboxylic acid ethyl ester] | 10 | 0 | 100 | 90 | –
6 | CCOC(=O)c1nc(-c2ccc(C(F)(F)F)cc2)nc(N)c1OC [Compound 11, 6-Amino-5-methoxy-2-(4-trifluoromethylphenyl)pyrimidine-4-carboxylic acid ethyl ester] | 85 | 0 | 90 | 85 | –
7 | CCOC(=O)c1nc(-c2ccc3c(c2)OCO3)nc(N)c1OC [Compound 12, 6-Amino-2-benzo[1,3]-dioxol-5-yl-5-methoxypyrimidine-4-carboxylic acid ethyl ester] | 85 | 90 | 50 | 80 | –
8 | CCOC(=O)c1nc(-c2ccc(Cl)cc2F)nc(N)c1OC [Compound 13, 6-Amino-2-(4-chloro-2-fluorophenyl)-5-methoxypyrimidine-4-carboxylic acid ethyl ester] | 0 | 35 | 100 | 100 | –
9 | CCOC(=O)c1nc(-c2ccc(Cl)c(C(C)F)c2F)nc(N)c1OC (stereo not shown) [Compound 14, 6-Amino-2-[4-chloro-2-fluoro-3-(1-fluoroethyl)phenyl]-5-methoxypyrimidine-4-carboxylic acid ethyl ester] | 100 | 100 | 100 | 100 | –
10 | CCOC(=O)c1nc(-c2cc(OC)c(Cl)cc2F)nc(N)c1OC [Compound 16, 6-Amino-2-(4-chloro-2-fluoro-5-methoxyphenyl)-5-methoxypyrimidine-4-carboxylic acid ethyl ester] | 0 | 10 | 60 | 100 | –
11 | CCOc1c(N)nc(-c2ccc(Cl)c(OC)c2F)nc1C(=O)O [Compound 18, 6-Amino-2-(4-chloro-2-fluoro-3-methoxyphenyl)-5-ethoxy-pyrimidine-4-carboxylic acid] | – | – | – | – | pest or weed control at 280 g/ha [2]: 70%; pest or weed control at 280 g/ha [3]: 70%; pest or weed control at 280 g/ha [4]: 100%
12 | COC(=O)c1nc(-c2ccc(Cl)c(OC)c2F)nc(N)c1SC [Compound 19, 6-Amino-2-(4-chloro-2-fluoro-3-methoxyphenyl)-5-methylsulfanylpyrimidine-4-carboxylic acid methyl ester] | – | – | – | – | pest or weed control at 195 g/ha ([1]; 195 g ai/ha): 90%; pest or weed control at 195 g/ha ([2]; 195 g ai/ha): 85%; pest or weed control at 195 g/ha ([3]; 195 g ai/ha): 90%; pest or weed control at 195 g/ha ([4]; 195 g ai/ha): 100%
13 | COc1c(Cl)ccc(-c2nc(N)c(SC)c(C(=O)O)n2)c1F [Compound 21, 6-Amino-2-(4-chloro-2-fluoro-3-methoxyphenyl)-5-methylsulfanyl-pyrimidine-4-carboxylic acid] | 100 | 60 | 85 | 100 | –
14 | COc1c(N)nc(-c2ccc(Cl)c(OC)c2F)nc1C(=O)O [Compound 22, 6-Amino-2-(4-chloro-2-fluoro-3-methoxyphenyl)-5-methoxypyrimidine-4-carboxylic acid] | 100 | 100 | 100 | 100 | –
15 | COc1c(N)nc(-c2ccc(C)cc2F)nc1C(=O)O [Compound 28, 6-Amino-2-(2-fluoro-4-methylphenyl)-5-methoxypyrimidine-4-carboxylic acid] | – | – | – | – | melting point: 94 to 97 °C
16 | COc1c(N)nc(-c2ccc(Cl)cc2F)nc1C(=O)O [Compound 31, 6-Amino-2-(4-chloro-2-fluorophenyl)-5-methoxypyrimidine-4-carboxylic acid] | 85 | 70 | 100 | 100 | –
17 | COc1c(N)nc(-c2ccc(C)cc2)nc1C(=O)O [Compound 32, 6-Amino-5-methoxy-2-p-tolylpyrimidine-4-carboxylic acid] | 95 | 65 | 80 | 100 | –
